The values below are quoted from earlier work in patent US20260345483A1, “Pharmaceutical Formulation” (Klaria Pharma Holding AB, priority 2018, published 2026).

Where only a bound is given, the exact number is not on record here.

The test system of series [1] is porcine buccal epithelium. The settings on record: enhancer concentration, ref [6].
For series [2] the following is noted: subcutaneous injection compared with intramuscular injection, ref [3].
For series [3] the following is noted: aqueous solution, ref [4].

With `CCCCCCCC/C=C\CCCCCCCC(=O)O` [Oleic acid, oleic acid], in series [1], the “enhanced permeability with porcine buccal epithelium” value is 1-10%.

Take `CNCC(O)c1ccc(O)c(O)c1` (stereo not shown) [adrenaline]: the “time of peak plasma concentration” value in series [2] was “significantly delayed”. In addition, in series [3], the “pH of acceptable adrenaline stability” value is given as under 5.5 and the “pH of optimal adrenaline stability” value is given as 3-4.
